In the test the target is EcPNP (Escherichia coli purine nucleoside phosphorylase) (Escherichia coli, UniProt P0ABP8). The following applies: phosphate co-substrate (50 mM potassium phosphate), 100 mM HEPES pH 7.4, 25 °C.

The term Km denotes the substrate concentration at which the rate is half of its maximum.

Sequence of EcPNP (Escherichia coli purine nucleoside phosphorylase) (P0ABP8 2-239): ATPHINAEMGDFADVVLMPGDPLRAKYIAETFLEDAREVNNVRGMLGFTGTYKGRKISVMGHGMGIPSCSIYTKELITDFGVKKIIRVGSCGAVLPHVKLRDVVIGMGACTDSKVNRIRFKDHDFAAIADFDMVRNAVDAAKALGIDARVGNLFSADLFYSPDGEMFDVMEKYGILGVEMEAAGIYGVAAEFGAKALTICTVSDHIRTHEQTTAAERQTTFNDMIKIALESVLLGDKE

In the case of `Nc1nc(F)nc2c1ncn2[C@@H]1O[C@H](CO)[C@@H](O)[C@@H]1O` [F-araA, 9-β-D-arabinofuranosyl-2-F-adenine], the Km was around 950 µM.

(Values after article PMC7039746 (Cancer chemotherapy and pharmacology, 2020).)
